Assay results: US20110123510A1, “Methods of Affecting Biological Function Through Circadian Clock Feedback Cycle by NAMPT-Mediated NAD+ Biosynthesis” (WASHINGTON UNIVERSITY, priority 2009, published 2011)

Tests used:
[1] = tested on: CLOCK:BMAL1-driven transcription of Per2:luciferase; assay: Per2:luciferase transcriptional reporter assay in HEK293 cells; format: cell-based
Protocol: Luciferase Assays. HEK293 and HepG2 cells were transiently transfected with Clock (100 ng), Bmal1 (100 ng), firefly luciferase reporter (100 ng), and renilla luciferase reporter (control for transfection efficiency) (4 ng) using Lipofectamine 2000. Increasing doses of Sirt1 (200-800 ng), resveratrol (20, 50, 100 uM), nicotinamide (1, 5, 10 mM), Ex-527 (0.1 or 1.0 uM), or FK866 (10 nM) were added as indicated. 48 hrs following transfection, cells were lysed and luciferase activity monitored using the Dual-Luciferase® Reporter Assay System (Promega). Firefly luciferase values were normalized to renilla luciferase values, and a minimum of 3 independent experiments was performed in triplicate for each assay.

Per2 RNA oscillation = Per2 RNA oscillation in primary hepatocytes following serum shock; format: cell-based, mice; settings: primary hepatocytes after serum shock, 200 nM FK866 added at t=2 (FIG. 3B); vehicle 2.2 day
Protocol: (§1) Quantitative Real-Time PCR. Total RNA was extracted from frozen tissue with Tri Reagent (Molecular Research Center, Inc.). cDNA was synthesized using the High Capacity cDNA Reverse Transcription kit (Applied Biosystems). Real-time PCR was performed and analyzed using an Applied Biosystems 7900HT Fast Real-Time PCR System (Applied Biosystems). PCR conditions were: 10 min at 95° C., then 35 cycles of 10 s at 95° C., 15 s at 60° C. Relative expression levels (normalized to Gapdh) were determined using the comparative CT method.
(§2) Primary Hepatocyte Isolation and Adenoviral Infection.
Synchronization of Primary Hepatocytes by Serum Shock. Hepatocytes were synchronized by changing to media containing 50% horse serum (t=0) for 2 hrs and then maintaining cells in media containing 0.5% FBS (A. Balsalobre, F. Damiola, U. Schibler, Cell 93, 929 (1998)). For FK866 application, 200 nM FK866 was added to the culture at t=2. RNA samples were collected at the indicated time points, and the expression of clock genes was examined by quantitative real-time PCR as described above. Damping rate was assessed as the decay rate of the oscillations of averaged Per2 RNA abundance assuming exponential decay.

[2] = tested on: NAMPT-mediated NAD+ biosynthesis; settings: primary hepatocytes, 200 nM FK866 for 24 hours (FIG. 2A)
Protocol: NAD^+Measurements. NAD^+ levels were measured using HPLC with Waters 515 pumps and a 2487 detector with a Supelco LC-18-T column (15 cm×4.6 cm). Briefly, frozen liver tissues or cultured cells were extracted in 1M perchloric acid and neutralized in 3M K2CO3 on ice. After centrifugation, the supernatant was mixed with Buffer A (50 mM K2PO4/KHPO4, pH 7.0) and loaded on to the column. The HPLC was run at a flow rate of 1 ml/min with 100% Buffer A from 0-5 min, a linear gradient to 95% Buffer N5% Buffer B (100% methanol) from 5-6 min, 95% Buffer N5% Buffer B from 6-11 min, a linear gradient to 85% Buffer N15% Buffer B from 11-13 min, 85% Buffer A/15% Buffer B from 13-23 min, and a linear gradient to 100% Buffer A from 23-24 min. NAD^+ eluted as a sharp peak at 15 min and was quantitated based on the peak area compared to a standard curve and normalized to tissue weight of frozen liver tissues or to protein content of cultured cells.

SIRT1 target genes = assay: mRNA expression of SIRT1 target genes in primary hepatocytes (quantitative real-time PCR); format: cell-based, mice; settings: 200 nM FK866 for 24 hours (FIG. 2B)
Protocol: as §1, §2

## NC(=O)C1CCCc2c1[nH]c1ccc(Cl)cc21 (stereo not drawn) [EX-527]
[1]; Ex-527 0.1 and 1.0 uM (FIG. 6C)
  Per2:luciferase transcription: showed a similar trend

## O=C(/C=C/c1cccnc1)NCCCCC1CCN(C(=O)c2ccccc2)CC1 [FK866]
Per2 RNA oscillation
  damping rate of Per2 oscillation: 5.3 days
[2]
  NAD+ biosynthesis (NAD+ levels): significantly inhibited
[1]; HEK293 cells, 10 nM FK866 for 24 or 48 hours (FIG. 2C)
  CLOCK:BMAL1-driven transcription of the Per2:luciferase reporter: significant increase
[1]; Sirt1 (800 ng) and 10 nM FK866 for 48 hours (FIG. 2E)
  SIRT1-dependent suppression of CLOCK:BMAL1-mediated transcription: abrogated
SIRT1 target genes
  reduction in mRNA expression level of G6 Pase: ~30%
  reduction in mRNA expression level of Pepck: ~30%

## NC(=O)c1cccnc1 [nicotinamide, 3-pyridinecarboxamide]
[1]; increasing doses of nicotinamide 1, 5 and 10 mM (FIG. 6B)
  Per2:luciferase transcription: activated

## Oc1ccc(C=Cc2cc(O)cc(O)c2)cc1 [resveratrol]
[1]; increasing doses of resveratrol 20, 50 and 100 uM (FIG. 6A)
  Per2:luciferase transcription: inhibited
